Results from ChEMBL document CHEMBL4665799, “Synthesis and biological evaluation of diaryl urea derivatives as FLT3 inhibitors” (Bioorg Med Chem Lett, 2020).
pIC50: −log10 of the molar value.

Legend:
[1] = tested on: Receptor-type tyrosine-protein kinase FLT3 (Homo sapiens), P36888 [UNDEFINED MUTATION]; details: dose 500.0 nM
Description: Inhibition of FLT3 ITD mutant (unknown origin) at 500 nM relative to control

[2] = biological target: Receptor-type tyrosine-protein kinase FLT3 (Homo sapiens, UniProt P36888, ITD)
Description: Inhibition of FLT3 ITD mutant (unknown origin)

MV4-11 [3] = test: cells; details: Homo sapiens
Description: Antiproliferative activity against human MV4-11 cells assessed as reduction in cell viability

MV4-11 [4] = test: Potency index, ratio of quizartinib IC50 to test compound IC50 for antiproliferative activity against human MV4-11 cells assessed as reduction in cell viability; format: functional

Sequence of Receptor-type tyrosine-protein kinase FLT3 (Homo sapiens), P36888 [UNDEFINED MUTATION] (P36888 whole entry, looked up, change not shown): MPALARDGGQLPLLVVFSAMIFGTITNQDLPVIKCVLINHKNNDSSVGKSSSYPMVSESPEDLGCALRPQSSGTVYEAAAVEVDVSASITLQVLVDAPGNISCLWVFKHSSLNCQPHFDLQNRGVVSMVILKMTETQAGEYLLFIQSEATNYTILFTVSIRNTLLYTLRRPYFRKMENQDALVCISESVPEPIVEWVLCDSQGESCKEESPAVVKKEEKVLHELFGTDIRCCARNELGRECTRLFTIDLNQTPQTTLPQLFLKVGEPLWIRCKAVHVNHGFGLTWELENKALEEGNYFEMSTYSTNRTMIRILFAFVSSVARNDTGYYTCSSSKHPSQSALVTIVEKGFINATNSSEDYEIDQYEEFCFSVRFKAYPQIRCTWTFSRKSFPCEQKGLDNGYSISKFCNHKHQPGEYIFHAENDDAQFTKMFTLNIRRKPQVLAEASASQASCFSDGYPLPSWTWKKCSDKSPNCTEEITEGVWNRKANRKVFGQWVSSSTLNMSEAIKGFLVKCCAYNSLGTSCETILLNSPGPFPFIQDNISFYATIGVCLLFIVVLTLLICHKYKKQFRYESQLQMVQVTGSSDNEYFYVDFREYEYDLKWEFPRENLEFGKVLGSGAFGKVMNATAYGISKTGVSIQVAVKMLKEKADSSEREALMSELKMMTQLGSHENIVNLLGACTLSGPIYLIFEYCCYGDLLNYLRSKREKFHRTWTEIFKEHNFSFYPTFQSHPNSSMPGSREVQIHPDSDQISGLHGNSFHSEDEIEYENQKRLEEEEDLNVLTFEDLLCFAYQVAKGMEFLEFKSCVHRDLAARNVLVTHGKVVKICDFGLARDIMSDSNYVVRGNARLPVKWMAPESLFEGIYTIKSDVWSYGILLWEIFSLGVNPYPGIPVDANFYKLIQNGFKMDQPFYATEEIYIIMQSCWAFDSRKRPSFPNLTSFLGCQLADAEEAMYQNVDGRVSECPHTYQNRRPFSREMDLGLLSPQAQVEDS
Sequence of Receptor-type tyrosine-protein kinase FLT3 (P36888 whole entry, looked up, change not shown): as above

| SMILES | inhibition [1] | pIC50 [2] | pIC50 (MV4-11 [3]) | Ratio IC50 (MV4-11 [4]) |
| --- | --- | --- | --- | --- |
| COc1ccc2nc(NC(=O)Cc3ccc(NC(=O)Nc4cc(C(C)(C)C)on4)cc3)sc2c1 | 2.5% | – | – | – |
| Cc1cc(NC(=O)Nc2ccc(C(=O)Nc3ccc(-c4cn5c(n4)sc4cc(OCCN6CCOCC6)ccc45)cc3)cc2)on1 | 28.1% | – | – | – |
| Cc1cc(NC(=O)Nc2ccc3c(c2)sc2nc(-c4ccc(OCCN5CCOCC5)cc4)cn23)no1 | 82.5% | 7.08 | 7.40 | – |
| CC(C)(C)c1cc(NC(=O)Nc2ccc(-c3cn4c(n3)sc3cc(OCCN5CCOCC5)ccc34)cc2)on1 | 99.6% | 8.25 | 9.75 | 4.75 |
| Cc1cc(NC(=O)Nc2ccc(CC(=O)Nc3ccc(-c4cn5c(n4)sc4cc(OCCN6CCOCC6)ccc45)cc3)cc2)no1 | 35.8% | – | – | – |
| Cc1cc(NC(=O)Nc2ccc(CC(=O)Nc3ccc(-c4cn5c(n4)sc4cc(OCCN6CCOCC6)ccc45)cc3)cc2)on1 | 45.9% | – | – | – |
| CC(C)(C)c1cc(NC(=O)Nc2ccc(CC(=O)Nc3ccc(-c4cn5c(n4)sc4cc(OCCN6CCOCC6)ccc45)cc3)cc2)on1 | 38.5% | – | – | – |
| CC(C)(C)c1cc(NC(=O)Nc2ccc(CC(=O)Nc3ccc(-c4cn5c(n4)sc4cc(OCCN6CCOCC6)ccc45)cc3)cc2)no1 | 36% | – | – | – |
| Cc1cc(NC(=O)Nc2ccc(C(=O)Nc3ccc(-c4cn5c(n4)sc4cc(OCCN6CCOCC6)ccc45)cc3)cc2)no1 | 29% | – | – | – |
| Cc1cc(NC(=O)Nc2ccc(-c3cn4c(n3)sc3cc(OCCN5CCOCC5)ccc34)cc2)no1 | 79.9% | – | – | – |
| COc1ccc2c(c1)sc1nc(-c3ccc(NC(=O)Nc4cc(C(C)(C)C)no4)cc3)cn12 | 97.2% | 7.69 | 8.71 | – |
| CC(C)(C)c1cc(NC(=O)Nc2ccc3c(c2)sc2nc(-c4ccc(OCCN5CCOCC5)cc4)cn23)no1 | 98.8% | 8.08 | 9.11 | – |
| CC(C)(C)c1cc(NC(=O)Nc2ccc(C(=O)Nc3ccc(-c4cn5c(n4)sc4cc(OCCN6CCOCC6)ccc45)cc3)cc2)no1 | 35% | – | – | – |
| COc1ccc2nc(NC(=O)Cc3ccc(NC(=O)Nc4cc(C)on4)cc3)sc2c1 | -2% | – | – | – |
| COc1ccc2nc(NC(=O)Cc3ccc(NC(=O)Nc4cc(C)no4)cc3)sc2c1 | 4.5% | – | – | – |
| COc1ccc2c(c1)sc1nc(-c3ccc(NC(=O)Nc4cc(C)on4)cc3)cn12 | 67.3% | – | – | – |
| COc1ccc2c(c1)sc1nc(-c3ccc(NC(=O)Nc4cc(C)no4)cc3)cn12 | 52.6% | – | – | – |
| Cc1cc(NC(=O)Nc2ccc3c(c2)sc2nc(-c4ccc(OCCN5CCOCC5)cc4)cn23)on1 | 76.9% | 6.96 | 7.05 | – |
| Cc1cc(NC(=O)Nc2ccc(-c3cn4c(n3)sc3cc(OCCN5CCOCC5)ccc34)cc2)on1 | 66.7% | 6.80 | 7.48 | – |
| CC(C)(C)c1cc(NC(=O)Nc2ccc3c(c2)sc2nc(-c4ccc(OCCN5CCOCC5)cc4)cn23)on1 | 99.3% | 8.17 | 9.21 | – |
| CC(C)(C)c1cc(NC(=O)Nc2ccc(C(=O)Nc3ccc(-c4cn5c(n4)sc4cc(OCCN6CCOCC6)ccc45)cc3)cc2)on1 | 41.9% | – | – | – |
| COc1ccc2nc(NC(=O)Cc3ccc(NC(=O)Nc4cc(C(C)(C)C)no4)cc3)sc2c1 | 6.4% | – | – | – |
